Assay results: ChEMBL document CHEMBL2331344, “Pharmacological chaperones as therapeutics for lysosomal storage diseases” (J Med Chem, 2013)
Blank lines part the entries; values can stand above or below the compound they belong to. Non-standard residues stand in square brackets, D forms with d. Residues, ends and D or L forms follow the SMILES beside them. *: point of attachment. Palmitoyl = CCCCCCCCCCCCCCCC(=O)*; Dap = NC[C@H](N)C(=O)O

Experiments:
[1] = system: T1, Lysosomal acid glucosylceramidase (Homo sapiens), P04062 [N409S]; test: Induction of beta glucosidase N370S mutant activity in cells derived from Gaucher disease patient at 20 uM relative to control
T1 sequence (whole entry): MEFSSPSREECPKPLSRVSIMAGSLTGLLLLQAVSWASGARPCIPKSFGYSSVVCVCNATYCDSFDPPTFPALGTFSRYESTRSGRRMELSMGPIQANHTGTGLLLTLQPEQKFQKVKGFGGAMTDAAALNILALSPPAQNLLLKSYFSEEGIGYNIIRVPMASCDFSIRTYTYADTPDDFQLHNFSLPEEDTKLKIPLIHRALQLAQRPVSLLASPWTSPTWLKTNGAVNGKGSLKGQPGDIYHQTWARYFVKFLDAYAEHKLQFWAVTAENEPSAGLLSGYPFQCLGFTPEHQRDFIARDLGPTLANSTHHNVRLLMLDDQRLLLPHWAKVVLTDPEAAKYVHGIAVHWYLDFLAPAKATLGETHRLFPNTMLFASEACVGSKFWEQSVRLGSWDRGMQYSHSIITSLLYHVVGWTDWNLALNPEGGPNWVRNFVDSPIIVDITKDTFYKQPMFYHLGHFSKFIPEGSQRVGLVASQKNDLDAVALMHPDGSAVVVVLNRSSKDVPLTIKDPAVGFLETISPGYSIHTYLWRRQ

Homo sapiens [2] = species: Homo sapiens; test: Induction of beta-hexosaminidase S activity in fibroblasts derived from ISD patient at 100 uM after 5 days by Western blotting analysis relative to control
[3] = system: T1, Lysosomal acid glucosylceramidase (Homo sapiens), P04062 [N409S]; test: Induction of beta glucosidase N370S mutant activity in primary skin fibroblast derived from Gaucher disease patient at 20 uM after 5 days relative to control
Homo sapiens [4] = species: Homo sapiens; test: Induction of beta hexosaminidase activity in patient derived cell-line at 50 uM relative to control
[5] = Non competitive inhibition of beta hexosaminidase (unknown origin); design: species or system Homo sapiens
Homo sapiens [6] = species: Homo sapiens; test: Induction of beta-hexosaminidase S in fibroblasts derived from ISD patient at 10 uM after 5 days by Western blotting analysis relative to control
Homo sapiens [7] = species: Homo sapiens; test: Induction of beta-hexosaminidase S in fibroblasts derived from ISD patient after 5 days by Western blotting analysis relative to control
Mus musculus [8] = test: Induction of beta glucosidase L444P mutant in mouse brain administered with drinking water measured after 4 weeks relative to control; format: functional
Beta-glucosidase = biological target: T2, Beta-glucosidase (Homo sapiens, UniProt Q9HCG7); test: Inhibition of beta glucosidase (unknown origin)
T2 sequence (Q9HCG7 whole entry): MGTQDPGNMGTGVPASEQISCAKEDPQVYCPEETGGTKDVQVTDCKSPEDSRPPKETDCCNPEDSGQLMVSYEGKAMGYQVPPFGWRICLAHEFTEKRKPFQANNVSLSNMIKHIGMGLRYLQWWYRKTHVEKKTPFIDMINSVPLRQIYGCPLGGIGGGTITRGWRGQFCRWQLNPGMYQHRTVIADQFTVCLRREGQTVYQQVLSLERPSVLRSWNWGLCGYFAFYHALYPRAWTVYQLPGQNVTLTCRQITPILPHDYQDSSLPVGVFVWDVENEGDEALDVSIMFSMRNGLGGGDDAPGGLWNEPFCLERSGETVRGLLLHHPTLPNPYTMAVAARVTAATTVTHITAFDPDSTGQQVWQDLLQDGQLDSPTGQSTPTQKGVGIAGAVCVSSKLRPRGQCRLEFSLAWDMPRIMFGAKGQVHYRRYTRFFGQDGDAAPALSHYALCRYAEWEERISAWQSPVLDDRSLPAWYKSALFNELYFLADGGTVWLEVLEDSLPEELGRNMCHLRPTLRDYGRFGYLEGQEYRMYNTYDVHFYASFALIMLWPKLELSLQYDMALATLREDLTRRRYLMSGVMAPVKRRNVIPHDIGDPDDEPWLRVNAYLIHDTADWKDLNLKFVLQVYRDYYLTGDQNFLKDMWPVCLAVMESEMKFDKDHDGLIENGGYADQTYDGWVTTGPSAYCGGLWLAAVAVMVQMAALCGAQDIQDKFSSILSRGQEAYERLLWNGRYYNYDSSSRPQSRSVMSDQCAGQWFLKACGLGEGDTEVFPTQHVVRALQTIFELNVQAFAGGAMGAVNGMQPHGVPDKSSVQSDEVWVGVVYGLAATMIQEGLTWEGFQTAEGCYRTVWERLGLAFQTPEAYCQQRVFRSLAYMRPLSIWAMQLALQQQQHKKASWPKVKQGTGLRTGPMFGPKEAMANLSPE

Mus musculus [9] = test: Induction of human alpha galactosidase A R301Q mutant activity expressed in C57BL/6 transgenic alpha galactosidase A knockout mouse at 3 mg/kg/day, po administered for 2 weeks measured in heart relative to control; format: functional
Mus musculus [10] = test: Induction of human alpha galactosidase A R301Q mutant activity expressed in C57BL/6 transgenic alpha galactosidase A knockout mouse at 3 mg/kg/day, po administered for 2 weeks measured in spleen relative to control; format: functional
Mus musculus [11] = test: Induction of human alpha galactosidase A R301Q mutant activity expressed in C57BL/6 transgenic alpha galactosidase A knockout mouse at 30 mg/kg/day, po administered for 2 weeks measured in spleen relative to control; format: functional
[12] = system: T3, Alpha-galactosidase A (Homo sapiens), P06280 [R301Q]; test: Induction of alpha galactosidase A R301Q mutant activity in lymphoblasts derived from Fabry disease patient at 100 uM after 4 days relative to control
T3 sequence (whole entry): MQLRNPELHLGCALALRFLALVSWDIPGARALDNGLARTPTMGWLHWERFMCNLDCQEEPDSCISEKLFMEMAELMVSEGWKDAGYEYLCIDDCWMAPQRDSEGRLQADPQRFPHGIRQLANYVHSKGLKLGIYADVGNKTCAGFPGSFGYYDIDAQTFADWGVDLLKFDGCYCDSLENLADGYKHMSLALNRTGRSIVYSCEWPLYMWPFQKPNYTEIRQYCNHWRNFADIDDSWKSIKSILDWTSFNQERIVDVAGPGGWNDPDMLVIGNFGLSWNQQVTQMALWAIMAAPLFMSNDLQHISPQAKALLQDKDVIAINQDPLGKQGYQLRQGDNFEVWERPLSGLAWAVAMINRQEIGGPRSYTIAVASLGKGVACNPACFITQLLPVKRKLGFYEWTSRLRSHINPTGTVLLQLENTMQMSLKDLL

Mus musculus [13] = test: Induction of in human alpha galactosidase A R301Q mutant activity expressed in C57BL/6 transgenic alpha galactosidase A knockout mouse at 30 mg/kg/day, po administered for 2 weeks measured in kidney relative to control; format: functional
Mus musculus [14] = test: Induction of human alpha galactosidase A R301Q mutant activity expressed in C57BL/6 transgenic alpha galactosidase A knockout mouse at 3 mg/kg/day, po administered for 2 weeks measured in liver relative to control; format: functional
Mus musculus [15] = test: Induction of human alpha galactosidase A R301Q mutant activity expressed in C57BL/6 transgenic alpha galactosidase A knockout mouse at 3 mg/kg/day, po administered for 2 weeks measured in kidney relative to control; format: functional
Mus musculus [16] = test: Induction of human alpha galactosidase A R301Q mutant activity expressed in C57BL/6 transgenic alpha galactosidase A knockout mouse at 30 mg/kg/day, po administered for 2 weeks measured in heart relative to control; format: functional
Mus musculus [17] = test: Induction of human alpha galactosidase A R301Q mutant activity expressed in C57BL/6 transgenic alpha galactosidase A knockout mouse at 30 mg/kg/day, po administered for 2 weeks measured in liver relative to control; format: functional
Homo sapiens [18] = species: Homo sapiens; test: Induction of beta glucosidase G202R mutant activity in primary skin fibroblast derived from patient after 5 days relative to control
[19] = system: T1, Lysosomal acid glucosylceramidase (Homo sapiens), P04062 [N409S]; test: Induction of beta glucosidase N370S mutant activity in primary skin fibroblast derived from Gaucher disease patient after 5 days relative to control
Beta-galactosidase = biological target: T4, Beta-galactosidase (Homo sapiens, UniProt P16278); test: Inhibition of human beta galactosidase
T4 sequence (P16278 whole entry): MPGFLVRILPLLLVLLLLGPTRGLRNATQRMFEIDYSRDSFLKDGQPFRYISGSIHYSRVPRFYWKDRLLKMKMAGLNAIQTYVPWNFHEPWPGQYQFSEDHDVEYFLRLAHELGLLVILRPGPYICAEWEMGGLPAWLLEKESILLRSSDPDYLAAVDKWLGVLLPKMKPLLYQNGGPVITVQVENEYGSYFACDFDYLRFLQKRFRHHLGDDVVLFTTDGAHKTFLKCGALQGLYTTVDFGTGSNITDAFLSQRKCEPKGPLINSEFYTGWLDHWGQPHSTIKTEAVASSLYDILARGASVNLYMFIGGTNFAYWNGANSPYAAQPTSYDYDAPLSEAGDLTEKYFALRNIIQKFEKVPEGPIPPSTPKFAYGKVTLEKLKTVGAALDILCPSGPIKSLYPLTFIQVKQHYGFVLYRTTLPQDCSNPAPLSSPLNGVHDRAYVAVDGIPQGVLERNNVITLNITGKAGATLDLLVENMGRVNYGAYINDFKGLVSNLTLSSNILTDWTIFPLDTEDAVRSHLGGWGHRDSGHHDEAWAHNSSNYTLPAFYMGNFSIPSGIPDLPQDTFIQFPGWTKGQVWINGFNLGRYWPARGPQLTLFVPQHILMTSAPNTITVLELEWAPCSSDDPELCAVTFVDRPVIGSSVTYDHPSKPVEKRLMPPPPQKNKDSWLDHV

[20] = biological target: T5, Palmitoyl-protein thioesterase 1 (Homo sapiens, UniProt P50897); test: Inhibition of PPT1 (unknown origin) in cell lysates using fluorescent-based MUGSP as substrate after 1 to 3 hrs
T5 sequence (P50897 whole entry): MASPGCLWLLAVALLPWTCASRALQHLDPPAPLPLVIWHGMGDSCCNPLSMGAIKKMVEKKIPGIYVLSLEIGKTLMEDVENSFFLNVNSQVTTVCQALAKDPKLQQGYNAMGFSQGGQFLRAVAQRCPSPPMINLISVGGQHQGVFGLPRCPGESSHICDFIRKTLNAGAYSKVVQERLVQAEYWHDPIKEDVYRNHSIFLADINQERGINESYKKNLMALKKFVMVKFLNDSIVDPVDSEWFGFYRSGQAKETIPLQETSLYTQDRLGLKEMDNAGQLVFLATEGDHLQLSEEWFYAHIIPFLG

SMILES: O=C1c2cccc3cccc(c23)C(=O)N1CCNCCN1C(=O)c2cccc3cccc(c23)C1=O
fold change (FC) (Homo sapiens [6]): 3

SMILES: O=C1c2ccccc2/C(=N/O)C1[N+](=O)[O-] (configuration not stated)
fold change (FC) (Homo sapiens [7]): 2

SMILES: OC[C@H]1CNC[C@@H](O)[C@@H]1O [AFEGOSTAT]
fold change (FC) (Mus musculus [8]): 2

SMILES: O[C@H]1[C@H](O)[C@@H](O)CN2CC[C@H](O)[C@H]12 [CASTANOSPERMINE]
IC50 (Beta-glucosidase): 19 µM

SMILES: OC[C@H]1NC[C@H](O)[C@@H](O)[C@H]1O
fold change (FC) (Mus musculus [9]): 4
fold change (FC) (Mus musculus [10]): 1.7
fold change (FC) (Mus musculus [11]): 1.8
fold change (FC) [12]: 14
fold change (FC) (Mus musculus [13]): 28
fold change (FC) (Mus musculus [14]): 3.1
fold change (FC) (Mus musculus [15]): 2
fold change (FC) (Mus musculus [16]): 18
fold change (FC) (Mus musculus [17]): 7.1

SMILES: O=C(CCCCCN1C[C@H](O)[C@@H](O)[C@H](O)[C@H]1CO)NC12CC3CC(CC(C3)C1)C2
fold change (FC) (Homo sapiens [18]): 2.7
fold change (FC) [19]: 1.4

SMILES: CCCCCCCCN[C@@H]1C=C(CO)[C@H](O)[C@H](O)[C@H]1O
Ki (Beta-galactosidase): 0.3 µM

Continued, values first:

fold change (FC) [1]: 1.9
SMILES: OC[C@@H]1[C@@H](O)C(O)[C@@H](O)CN1CCCn1cc(COc2ccccc2)nn1 (single isomer, unassigned)

fold change (FC) (Homo sapiens [2]): 2.5
SMILES: Cc1[nH]cc2c(=O)n(Cc3ccc(Cl)cc3)ncc12

fold change (FC) [3]: 1.6
SMILES: CN(C)c1cccc2c(S(=O)(=O)NCCCCCCN(CCCCCCNS(=O)(=O)c3cccc4c(N(C)C)cccc34)C(=O)CCCCCCN3C[C@H](O)[C@@H](O)[C@H](O)[C@H]3CO)cccc12

fold change (FC) (Homo sapiens [4]): 2
Ki [5]: 2.8 µM
SMILES: CC(=O)N[C@H]1CN(Cc2ccccc2)[C@@H](CO)[C@@H]1O

IC50 [20]: 10 µM
SMILES: CCCCCCCCCCCCCCCC(=O)NC[C@H](NC(=O)CNC(C)=O)C(=O)N[C@H](C(=O)N[C@@H](CCCCN)C(=O)N[C@H](C(=O)N[C@@H](CCCCN)C(=O)N[C@@H](CCCCN)C(=O)O)[C@@H](C)CC)C(C)C (Ac-G[Dap](Palmitoyl)VKIKK-OH)
